Source: US12233099B2, “Composition for promoting myogenesis, containing processed ginseng extract” (GREEN CROSS WELLBEING CORPORATION, priority 2018, dated 2025)

Legend:
Format in all cases: cell-based, mouse
[1] = tested on: myotubes differentiated from C2C12; assay: Myostatin-induced myoatrophy cell model (myotube breadth)
Protocol: After myotubes were differentiated by the same method as in the induction of myotube differentiation of Test Example 1, the cells were added in DMEM not containing FBS, and cultured for 3 hours. After culturing, the cells were treated with the myogenesis inhibitor myostatin (MSTN) at different concentrations for 24 hours, and the change in breadth of myotubes was measured in order to investigate whether myoatrophy was induced. The change in breadth of myotubes was measured by the same method as in Test Example 4, and after the immunofluorescent staining, images of myotubes were observed using the fluorescent substance attached to MHC through a microscope, and the Image J program was used to determine the breadth of myotubes.
To investigate the myoatrophy inhibitory effect of the processed ginseng extracts of the present invention, myoatrophy was induced by the same method as the construction method of myoatrophy animal cell models in Test Example 5-1, and then the change in myotube breadth was observed. The myotubes were treated with 0.4 μg/0 myostatin (MSTN) and 30 μg/0 the processed ginseng extract of Example 2 alone or in combination, and the myotubes not treated with myostatin and the processed ginseng extract of Example 2 were used as a control group.

[2] = tested on: phosphorylated Smad2 (pSmad2); assay: Smad2 phosphorylation in myostatin-treated myotubes (Western blotting); details: myotubes treated with myostatin; extract 0, 10, 30, and 100 μg/ml
Protocol: The myotubes differentiated by the same method as in Test Example 5-2 were treated with myostatin and the processed ginseng extract of Example 2 to secure cells, and the cells were subjected to Western blotting. The treatment concentrations of the processed ginseng extract of Example 2 was 0, 10, 30, and 100 μg/ml. A lysis buffer was added to the secured cells to lyse cells, and then centrifugation was used to secure proteins of the supernatant. The secured proteins of the supernatant were separated through sodium dodecyl sulfate polyacrylamide gel electrophoresis (SDS-PAGE) and transferred to a polyvinylidene fluoride (PVDF) membrane. The membrane was blocked by a blocking solution, treated with a primary antibody in order to determine the amounts of Smad2 and phosphorylated Smad2 (pSmad2), and then treated with a secondary antibody to the primary antibody. Then, enhanced chemiluminescence (ECL, Amersham) was used to examine protein expression.

MAFbx = MAFbx expression in myostatin-treated myotubes (Western blotting); details: extract 30 μg/ml
Protocol: (§1) The myotubes differentiated by the same method as in Test Example 5-2 were treated with myostatin and the processed ginseng extract of Example 2 to secure cells. The treatment concentrations of the processed ginseng extract of Example 2 was 30 μg/ml. The secured cells were subjected to Western blotting using antibodies corresponding to MyoD and MAFbx by the same method as in Test Example 6-1, and the results are shown in FIG. 8.

MyoD = MyoD expression in myostatin-treated myotubes (Western blotting); details: extract 30 μg/ml
Protocol: as §1

myostatin: myogenesis inhibitor protein of the TGF-β group, used to induce myotube atrophy
myotube breadth compared with the control group, treatment alone ([1]; 30 μg/0 Example 2 extract or 0.4 μg/0 myostatin alone): reduced | myostatin concentration giving greatest reduction in breadth of myotubes ([1]; 24 hours): 0.4 μg/0 | breadth of myotubes compared with myotubes not treated with myostatin ([1]; myostatin at different concentrations for 24 hours): reduced in breadth of myotubes with the increase of the treatment concentration | Smad2 phosphorylation (pSmad2) [2]: increased | MAFbx expression (compared with GAPDH) (MAFbx): increase in MAFbx expression | MyoD expression (compared with GAPDH) (MyoD): reduction in MyoD expression
